Structures can show the parent of a compound that is named as a salt. Where two headings read alike, the source gives them in different places. Marks after values point to notes of the source that are not given here.
What was measured:
[1] = system: Fusobacterium nucleatum; experiment: MIC microdilution assay; assay type: cell-based; settings: Fusobacterium nucleatum, F. nucleatum
[2] = system: Streptococcus mutans; experiment: Combination determination (FIC, MIC in combination); assay type: cell-based; settings: S. mutans
Description: (§1) The alkaloids were tested in pair-wise combinations (fractional inhibitory concentrations, FIC) against all the bacteria to determine whether interactions were antagonistic (FIC>1), additive (0.5<FIC<1), or synergistic (FIC<0.5). The FIC was calculated by the following: (MIC Acombination/MIC Aalone)+(MIC Bcombination/MIC Balone). Where A represents compound 1 and B represents compound 2. […] In the case of A. actinomycetemcomitans and P. aeruginosa, CHX was used at 0.78 to 50 μg ml^−1. Berberine (B-CG and B-S) was used at concentrations 0.9 to 250 μg ml^−1. The antibacterial efficacy of berberine (1.95 to 500 μg ml^−1) was tested in combination against P. aeruginosa with CHX (0.78 to 50 μg ml^−1) (Sigma Chemicals) and the polymyxin antibiotic Col (0.04 to 25 μg ml^−1) (Sigma Chemicals). The plates were incubated for 24 hours.
CHX was diluted from left to right at 10 to 0.08 μg ml^−1 ([…] 1 to 8), berberine was diluted from top to bottom at 250 to 0.09 μg ml^−1 ([…] 1 to 8). Column 9 was the cell control, column 10 was berberine alone (250 to 0.09 μg ml^−1); and column 11 was CHX alone (10 to 0.08 μg ml^−1). Row H was the solvent control (8% DMSO, H1 to H8). Column 12 was the media blank. The dilution assay was designed such that A1 contained the highest concentration of both agents (berberine 250 μg ml^−1 and CHX 10 μg ml^−1). The final concentration of berberine in wells A2 to A8 was […]. The FIC value was calculated from well C6. FIC was calculated by: (MIC Acombination/MIC Aalone)+(MIC Bcombination/MIC Balone).

[3] = rat, in vivo, iv; cited from earlier work
[4] = system: mice; settings: cited from earlier work; for LD50: mice
[5] = system: Pseudomonas aeruginosa; experiment: MIC microdilution assay; assay type: cell-based; settings: Pseudomonas aeruginosa; P. aeruginosa; agent alone; read-out: MIC of the antimicrobial agents alone
[6] = system: Porphymonas gingivalis; experiment: MIC microdilution assay; assay type: cell-based; settings: Porphyromonas gingivalis, P. gingivalis
[7] = system: Actinobacillus actinomycetemcomitans; experiment: MIC microdilution assay; assay type: cell-based; settings: Aggregatibacter actinomycetemcomitans
[8] = system: rabbits; settings: s.c.; cited from earlier work
[9] = system: Streptococcus mutans; experiment: MIC microdilution assay; assay type: cell-based; settings: Streptococcus mutans, S. mutans
[10] = system: Streptococcus gordonii; experiment: MIC microdilution assay; assay type: cell-based; settings: Streptococcus gordonii, S. gordonii
[11] = system: Escherichia coli; experiment: MIC microdilution assay; assay type: cell-based; settings: E. coli, agent alone, read-out: MIC of the antimicrobial agents alone
[12] = system: patients with heart conditions; settings: human, in vivo; cited from earlier work
[13] = system: Streptococcus gordonii; experiment: Combination determination (FIC, MIC in combination); assay type: cell-based; settings: S. gordonii; berberine (B-CG) combined with CHX, Tet or Dox; MIC of the named agent in the combination
Description: as §1

[14] = system: Pseudomonas aeruginosa; experiment: as above; assay type: cell-based; settings: P. aeruginosa; berberine combined with CHX or Col; MIC of the named agent in the combination
Description: as §1

[15] = system: Actinobacillus actinomycetemcomitans; experiment: as above; assay type: cell-based; settings: A. actinomycetemcomitans grown under anaerobic conditions; berberine (B-CG) combined with CHX, Tet or Dox; MIC of the named agent in the combination
Description: as §1

[16] = system: Escherichia coli; experiment: as above; assay type: cell-based; settings: E. coli; berberine (B-CG) combined with CHX, Tet or Dox; MIC of the named agent in the combination
Description: as §1

[17] = system: Staphylococcus aureus; experiment: as above; assay type: cell-based; settings: S. aureus; berberine (B-CG) combined with CHX, Tet or Dox; MIC of the named agent in the combination
Description: as §1

[18] = system: Fusobacterium nucleatum; experiment: as above; assay type: cell-based; settings: F. nucleatum; berberine (B-CG) combined with CHX, Tet or Dox; MIC of the named agent in the combination
Description: as §1

[19] = system: Porphymonas gingivalis; experiment: as above; assay type: cell-based; settings: P. gingivalis; berberine (B-CG) combined with CHX, Tet or Dox; MIC of the named agent in the combination
Description: as §1

[20] = in vivo, po; cited from earlier work
[21] = system: Staphylococcus aureus; experiment: MIC microdilution assay; assay type: cell-based; settings: S. aureus, agent alone, read-out: MIC of the antimicrobial agents alone
[22] = system: S. pyogenes; settings: at sub-MIC levels; cited from earlier work
[23] = system: dogs; settings: dog, in vivo; cited from earlier work
[24] = system: mice; settings: 15 mg/kg i.p.; cited from earlier work
[25] = system: rats; settings: single intraintestinal injection 10 mg/kg into the duodenum; cited from earlier work
[26] = system: albino rats; settings: i.p. 50 mg/kg; cited from earlier work
[27] = system: dogs; settings: intravenous 0.1-6.0 mg/kg; cited from earlier work
[28] = system: cats; settings: intravenous 0.1-6.0 mg/kg; cited from earlier work
[29] = system: rats; settings: intravenous 0.1-6.0 mg/kg; cited from earlier work
[30] = agent alone, read-out: MIC of the antimicrobial agents alone

COc1ccc2cc3[n+](cc2c1OC)CCc1cc2c(cc1-3)OCO2 [Berberine, 5,6-dihydro-9,10-dimethoxybenzo[g]-1,3-benzodioxolo[5,6-a]quinolizinium]
MIC [1, 30]: 15.6 µg/mL | MIC ([1]; Fn, read-out: MIC of Goldenseal Alkaloids Against Selected Oral Pathogens): 15.6 µg/mL | MIC of the antimicrobial agents in combination ([2]; berberine (B-CG) combined with CHX, Tet or Dox, MIC of the named agent in the combination): 62.5 µg/mL | MIC alone used for the FIC ([2]; same plate, 48 h): 125 µg/mL | MIC in combination used for the FIC ([2]; well C6, berberine (B-G) with CHX, 48 h): 31.25 µg/mL | Tissue distribution [3]: highest concentrations of berberine were found in the kidneys | LD50 ([4]; oral): 329 mg/kg | LD50 ([4]; s.c.): 18 mg/kg | LD dose ([4]; mouse, in vivo, ip): greater than 500 mg/kg | MIC [5]: > 500 µg/mL | MIC [6, 30]: 23.4 µg/mL | MIC ([6]; Pg, read-out: MIC of Goldenseal Alkaloids Against Selected Oral Pathogens): 15.6 µg/mL | MIC ([7]; A. actinomycetemcomitans grown under anaerobic conditions, agent alone, read-out: MIC of the antimicrobial agents alone): > 500 µg/mL | MIC ([7]; Aa, A. actinomycetemcomitans, read-out: MIC of Goldenseal Alkaloids Against Selected Oral Pathogens): > 500 µg/mL | LD50 [8]: 100 mg/kg | MIC [9, 30]: 125 µg/mL | MIC ([9]; Sm, read-out: MIC of Goldenseal Alkaloids Against Selected Oral Pathogens): 125 µg/mL | MIC [10, 30]: 250 µg/mL | MIC ([10]; Sg, read-out: MIC of Goldenseal Alkaloids Against Selected Oral Pathogens): 250 µg/mL | MIC [11]: 250 µg/mL | Adverse effect in heart failure patients [12]: ventricular tachycardia in some subjects | MIC of the antimicrobial agents in combination [13]: 62.5 µg/mL | MIC of the antimicrobial agents in combination [14]: 250** μg ml^−1 | MIC of the antimicrobial agents in combination [15]: 250 µg/mL | MIC of the antimicrobial agents in combination [16]: 125 µg/mL | MIC of the antimicrobial agents in combination [17]: 62.5 µg/mL | MIC of the antimicrobial agents in combination [18]: 3.9 µg/mL | MIC of the antimicrobial agents in combination [19]: 7.81 µg/mL | Further time to clear [20]: four | Time to reach peak concentrations in plasma [20]: four | MIC [21]: 250 µg/mL

COc1ccc2cc3[n+](cc2c1OC)CCc1cc2c(cc1-3)OCO2 [berberine sulfate]
Adherence of S. pyogenes to epithelial cells [22]: inhibited the adherence | Number of apomorphine-induced vomits [23]: significantly increased | Protection from amphetamine toxicity [24]: no significant effect | Effect on the volume or acidity [25]: no effect | Effect on rectal temperature [26]: reduced rectal temperature | Effect on blood pressure [27]: reduced the blood pressure | Effect on blood pressure [28]: reduced the blood pressure | Effect on blood pressure [29]: reduced the blood pressure

From patent US20070098649A1, “Method and composition for controlling oral pathogens” (priority 2004, published 2007)
